Data reported in patent publication US6472348B1, “Pyridone derivatives and herbicides” (Kumiai Chemical Industry Co., Ltd., priority 1996, dated 2002).

Columns and labels:
rice flatsedge (Ci) = assay: Test Example 2: herbicidal effects by upland field soil treatment; assay type: in vivo; conditions: 100 g of the active ingredient per 10 ares, evaluated on the 21st day after application;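 note: grade of growth control; 5 = at least 90%; 4 = 70 to 90%; 3 = 50 to 70%; 2 = 30 to 50%; 1 = 10 to 30%; 0 = under 10%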
Text: (Test on Herbicidal Effects by Upland Field Soil Treatment)

barnyardgrass (Ec) = assay: Test Example 3: herbicidal effects by upland field foliage treatment; assay type: in vivo; parameters: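 grade of growth control; 5 = at least 90%; 4 = 70 to 90%; 3 = 50 to 70%; 2 = 30 to 50%; 1 = 10 to 30%; 0 = under 10%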; conditions: 100 g active ingredient per 10 ares, evaluated 14th day after treatment
How it was run: (§1)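 Two-week-old greenhouse seedlings, raised in sand-filled pots (120 cm^2) with seed covered by soil, receive a foliar application. Effects are then evaluated by standard grades 14 days later, plants remaining in the greenhouse meanwhile.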

pale smartweed (Po) [1] = assay: as above; assay type: in vivo; parameters: scale not given here; conditions: 100 g active ingredient per 10 ares, evaluated 14th day after treatment
How it was run: as §1

China jute (Ab) = assay: Test Example 4: crop plant selectivity by upland field soil treatment (cotton), herbicidal effects; assay type: in vivo; parameters: scale not given here; conditions: evaluated 21st day after application
How it was run: (§2)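 Cotton and weeds (incl. China jute, pale smartweed, slender amaranth) sown in sand-filled pots and covered with soil, then soil-treated. Grown in greenhouse; herbicidal effect and cotton phytotoxicity scored on day 21 after application against a rating standard.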

[2] = system: common lambsquarters (Ch); assay: as above; assay type: in vivo; parameters: scale not given here; conditions: evaluated 21st day after application
How it was run: as §2

green foxtail (Se) = assay: as above; assay type: in vivo; parameters: scale not given here; conditions: evaluated 21st day after application
How it was run: as §2

pale smartweed (Po) [3] = assay: as above; assay type: in vivo; parameters: scale not given here; conditions: evaluated 21st day after application
How it was run: as §2

slender amaranth (Am) = assay: as above; assay type: in vivo; parameters: scale not given here; conditions: evaluated 21st day after application
How it was run: as §2

corn (Ze) = assay: Test Example 7: crop plant selectivity by upland field soil treatment (corn), phytotoxicity; assay type: in vivo; parameters: scale not given here; conditions: 21st day after application
How it was run: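 Greenhouse pot test: scores for herbicidal effect and corn phytotoxicity were given 21 days after soil treatment, against set rating standards. Crop and weed species (foxtail, smartweed, amaranth, lambsquarters, China jute) were sown together in sand and covered with soil beforehand.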

wheat (Tr) = assay: Test Example 9: crop plant selectivity by upland field foliage treatment (wheat), phytotoxicity; conditions: dose 1.6 g ai/10a, 14th day after treatment;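 note: grade of crop injury; 5 = at least 90%; 4 = 70 to 90%; 3 = 50 to 70%; 2 = 30 to 50%; 1 = 10 to 30%; 0 = under 10%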
How it was run: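 Read-out: weed control and wheat injury, rated by a defined scoring standard 14 days after foliar application.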

| SMILES | Herbicidal effects Ci (rice flatsedge (Ci)) | Herbicidal effects Ec (barnyardgrass (Ec)) | Herbicidal effects Po (pale smartweed (Po) [1]) | Herbicidal effects Ab (China jute (Ab); dose 6.3 g ai/10 a) | Herbicidal effects Ch ([2]; dose 6.3 g ai/10 a) | Herbicidal effects Se (green foxtail (Se); dose 6.3 g ai/10 a) | Herbicidal effects Po (pale smartweed (Po) [3]; dose 6.3 g ai/10 a) | Herbicidal effects Am (slender amaranth (Am); dose 6.3 g ai/10 a) | Phytotoxicity Ze (corn (Ze); dose 6.3 g ai/10a) | Phytotoxicity Tr (wheat (Tr)) | Herbicidal effects Ab (China jute (Ab); dose 1.6 g ai/10 a) | Herbicidal effects Ch ([2]; dose 1.6 g ai/10 a) | Herbicidal effects Se (green foxtail (Se); dose 1.6 g ai/10 a) | Herbicidal effects Po (pale smartweed (Po) [3]; dose 1.6 g ai/10 a) | Herbicidal effects Am (slender amaranth (Am); dose 1.6 g ai/10 a) | Phytotoxicity Ze (corn (Ze); dose 1.6 g ai/10a) |
| --- | --- | --- | --- | --- | --- | --- | --- | --- | --- | --- | --- | --- | --- | --- | --- | --- |
| Cn1c(C(F)(F)F)ccc(-c2c(F)cc(Cl)c3oc(CO)cc23)c1=O [Compound No. 4-5, 3-(7-chloro-5-fluoro-2-hydroxymethylbenzofuran-4-yl)-1-methyl-6-trifluoromethyl-2-(1H)-pyridone] | 5 | 5 | 5 | 5 | 5 | 5 | 5 | 5 | 0 | 2 | – | – | – | – | – | – |
| Cn1c(C(F)(F)F)ccc(-c2c(F)cc(Cl)c3occc23)c1=O [Compound No. 4-28, 3-(7-chloro-5-fluorobenzofuran-4-yl)-1-methyl-6-trifluoromethyl-2-(1H)-pyridone] | 5 | 4 | 5 | 5 | 5 | 5 | 5 | 5 | – | 2 | 5 | 5 | 5 | 5 | 5 | 1 |
